Laboratory results taken from ChEMBL document CHEMBL5034015, “Structure-Based Optimization of 3-Phenyl-N-(2-(3-phenylureido)ethyl)thiophene-2-sulfonamide Derivatives as Selective Mcl-1 Inhibitors” (J Med Chem, 2021).
Each block holds one molecule with its values, some of them ahead of it. Active and inactive are the calls of the source.

Key:
Bcl-2-like protein 1 [1] = target: T1, Bcl-2-like protein 1 (Homo sapiens, UniProt Q07817); test: Inhibition of FITC-labeled BH3 peptide binding to Bcl-xl (unknown origin) expressed in Escherichia coli BL21 (DE3) incubated for 0.5 hrs by TR-FRET assay
T1 sequence (Q07817 whole entry): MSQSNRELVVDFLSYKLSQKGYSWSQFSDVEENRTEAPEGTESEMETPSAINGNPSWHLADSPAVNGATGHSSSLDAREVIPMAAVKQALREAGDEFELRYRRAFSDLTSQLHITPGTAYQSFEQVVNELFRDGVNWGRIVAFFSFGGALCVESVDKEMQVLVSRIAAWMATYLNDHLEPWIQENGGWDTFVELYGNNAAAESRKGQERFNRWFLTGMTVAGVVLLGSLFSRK

[2] = target: Apoptosis regulator Bcl-2 (Homo sapiens, UniProt P10415); test: Binding affinity to full length human Bcl-2 expressed in Escherichia coli BL21 (DE3) at up to 100 uM preincubated for 30 mins followed by 5-FAM-QEDIIIINIARHLAQVGDSMD-RSIPPG tracer addition and measured after 20 mins by fluorescence polarization assay; conditions: dose microM <=100, time 50.0 min
Apoptosis regulator Bcl-2, sequence (P10415 whole entry): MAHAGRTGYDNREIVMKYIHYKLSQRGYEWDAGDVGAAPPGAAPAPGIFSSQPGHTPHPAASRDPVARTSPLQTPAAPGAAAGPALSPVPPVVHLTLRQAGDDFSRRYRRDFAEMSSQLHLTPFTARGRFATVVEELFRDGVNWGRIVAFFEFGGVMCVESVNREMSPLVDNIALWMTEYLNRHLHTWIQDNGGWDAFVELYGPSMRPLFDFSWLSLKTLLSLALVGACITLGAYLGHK

RS4-11 [3] = test: Antitumor activity against human RS4-11 cells xenografted in NOD/SCID mouse assessed as reduction in tumor volume at 50 mg/kg, ip administered every 2 days for 22 days and measured every 3 days relative to control; type: functional; design: scale not given: the % may be the effect or the level left; conditions: time 22 day
[4] = target: Induced myeloid leukemia cell differentiation protein Mcl-1 (Homo sapiens, UniProt Q07820); test: Binding affinity to full length human MCL1 expressed in Escherichia coli BL21 (DE3) assessed as inhibition constant preincubated for 30 mins followed by 5-FAM-QEDIIIINIARHLAQVGDSMD-RSIPPG tracer addition and measured after 20 mins by fluorescence polarization assay
Induced myeloid leukemia cell differentiation protein Mcl-1, sequence (Q07820 whole entry): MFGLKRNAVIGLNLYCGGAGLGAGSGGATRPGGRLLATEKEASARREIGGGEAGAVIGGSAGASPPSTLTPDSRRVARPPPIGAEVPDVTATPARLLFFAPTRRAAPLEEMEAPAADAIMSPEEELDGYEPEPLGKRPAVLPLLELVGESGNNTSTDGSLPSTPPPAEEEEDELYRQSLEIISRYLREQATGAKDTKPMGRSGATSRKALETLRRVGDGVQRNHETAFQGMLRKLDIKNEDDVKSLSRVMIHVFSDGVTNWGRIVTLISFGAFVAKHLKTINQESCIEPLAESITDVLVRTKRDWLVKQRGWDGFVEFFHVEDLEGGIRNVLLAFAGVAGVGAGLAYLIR

RS4-11 [5] = test: Induction of apoptosis in human RS4-11 cells assessed as late apoptotic cells at 20 uM measured after 24 hrs by Annexin V/7-AAD and MitoSense Red staining based flow cytometry analysis relative to control (reference value: 0.99 %); type: functional
RS4-11 [6] = test: Antitumor activity against human RS4-11 cells xenografted in NODSCID mouse assessed as inhibition of tumor growth at 12.5 mg/kg, ip administered every 2 days for 22 days and measured every 3 days relative to control; type: functional; design: scale not given: the % may be the effect or the level left; conditions: time 22 day
RS4-11 [7] = test: Induction of apoptosis in human RS4-11 cells assessed as early apoptotic cells at 20 uM measured after 24 hrs by Annexin V/7-AAD and MitoSense Red staining based flow cytometry analysis relative to control (reference value: 3.75 %); type: functional
RS4-11 [8] = test: Induction of apoptosis in human RS4-11 cells assessed as increase in cleaved PARP expression incubated for 48 hrs by western blot analysis; type: functional, cell-based
[9] = target: Induced myeloid leukemia cell differentiation protein Mcl-1/Bcl-2-like protein 11 (Homo sapiens) (UniProt Q07820+O43521); test: Inhibition of MCL1/Bim interaction in human MCF7 cells assessed as disruption of MCL1/Bim complex at 10 uM measured after 24 hrs by co-immunoprecipitation based western blot analysis relative to control; type: cell-based
Induced myeloid leukemia cell differentiation protein Mcl-1/Bcl-2-like protein 11 (Homo sapiens), sequence (O43521 whole entry, looked up): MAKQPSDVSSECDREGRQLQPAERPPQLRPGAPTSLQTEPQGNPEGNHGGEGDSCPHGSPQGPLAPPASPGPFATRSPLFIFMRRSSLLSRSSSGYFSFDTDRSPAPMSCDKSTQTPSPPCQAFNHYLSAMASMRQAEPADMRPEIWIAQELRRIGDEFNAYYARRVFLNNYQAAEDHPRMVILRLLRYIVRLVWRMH
Induced myeloid leukemia cell differentiation protein Mcl-1/Bcl-2-like protein 11 (Homo sapiens), sequence (Q07820 whole entry, looked up): as the sequence (Q07820 whole entry) above

RS4-11 [10] = test: Induction of apoptosis in human RS4-11 cells assessed as increase in cleaved caspase 9 expression incubated for 48 hrs by western blot analysis; type: functional, cell-based
HEK-293T = test: Cytotoxicity against HEK293T cells assessed as reduction in cell viability incubated for 48 hrs by CCK8 assay; conditions: Homo sapiens
RS4-11 [11] = test: Induction of apoptosis in human RS4-11 cells assessed as increase in cleaved caspase 3 expression incubated for 48 hrs by western blot analysis; type: functional, cell-based
RS4-11 [12] = test: Antitumor activity against human RS4-11 cells xenografted in NOD/SCID mouse assessed as inhibition of tumor growth at 25 mg/kg, ip administered every 2 days for 22 days and measured every 3 days relative to control; type: functional; design: scale not given: the % may be the effect or the level left; conditions: time 22 day
RS4-11 [13] = test: Induction of apoptosis in human RS4-11 cells assessed as viable cells at 20 uM measured after 24 hrs by Annexin V/7-AAD and MitoSense Red staining based flow cytometry analysis relative to control (reference value: 94.15 %); type: functional; conditions: read-out: Activity
HeLa = test: cells; conditions: Homo sapiens, 48 h
Description: Cytotoxicity against human HeLa cells assessed as inhibition of cell growth incubated for 48 hrs by CCK8 assay

RS4-11 [14] = test: Induction of apoptosis in human RS4-11 cells assessed as necrotic cells at 20 uM measured after 24 hrs by Annexin V/7-AAD and MitoSense Red staining based flow cytometry analysis relative to control (reference value: 1.11 %); type: functional
HL-60 = test: cells; conditions: Homo sapiens, HL-60, 48 h
Description: Cytotoxicity against human HL-60 cells assessed as inhibition of cell growth incubated for 48 hrs by CCK8 assay

RS4-11 [15] = test: Antitumor activity against human RS4-11 cells xenografted in SCID mouse assessed as reduction in Ki-67 positive cells administered intraperitoneally for 19 days by immunohistochemical analysis; type: functional, cell-based; conditions: time 19.0 day
[16] = Toxicity in NOD/SCID mouse xenografted with human RS4-11 cells assessed as reduction in body weight at 12.5 to 50 mg/kg, ip administered every 2 days for 22 days; type: organism-based; conditions: in vivo, 528 h, dose 12.5-50 mg/kg, time 22 day
RS4-11 [17] = test: cells; conditions: Homo sapiens, RS4-11, 48 h
Description: Cytotoxicity against human RS4-11 cells assessed as inhibition of cell growth incubated for 48 hrs by CCK8 assay

Bcl-2-like protein 1 [18] = target: T1, Bcl-2-like protein 1; test: Binding affinity to full length human Bcl-xl expressed in Escherichia coli BL21 (DE3) at up to 100 uM preincubated for 30 mins followed by 5-FAM-QEDIIIINIARHLAQVGDSMD-RSIPPG tracer addition and measured after 20 mins by fluorescence polarization assay; conditions: dose microM <=100, time 50.0 min
MCF7 = test: Inhibition of Bcl-2/Bim interaction in human MCF7 cells assessed as disruption of Bcl-2/Bim complex at 10 uM measured after 24 hrs by co-immunoprecipitation based western blot analysis relative to control; type: cell-based
Bcl-2-like protein 1 [19] = target: T1, Bcl-2-like protein 1; test: Inhibition of biotinylated Bim BH3 peptide binding to GST-tagged human Bcl-xl expressed in Escherichia coli BL21 (DE3) incubated for 1 hr by ELISA

- Ki (Bcl-2-like protein 1 [1]): > 10 µM
SMILES: Cc1cc(OCCCc2c3n(c4c(-c5c(C)nn(C)c5C)c(Cl)ccc24)CCCN(c2cc(C(=O)O)c4ccn(C)c4c2)C3=O)cc(C)c1Cl

- Activity [2]: inactive
- Ki [4]: 4.9 µM
- inhibition [9]: 30%
- IC50 (HeLa): 10.2 µM
- IC50 (HL-60): 5.3 µM
- IC50 (RS4-11 [17]): 5.6 µM
- Activity (Bcl-2-like protein 1 [18]): inactive
SMILES: COc1ccc(Oc2cc(C)ccc2-c2ccsc2S(=O)(=O)NCCNC(=O)Nc2cc(C(F)(F)F)cc(C(F)(F)F)c2)cc1OC
- Activity (RS4-11 [3]): 75%
- Activity (RS4-11 [5]): 94.21%
- Activity (RS4-11 [6]): >60%
- Activity (RS4-11 [7]): 4.15%
- Activity (RS4-11 [8]): Dose-Dependent Effect
- Activity (RS4-11 [10]): Dose-Dependent Effect
- IC50 (HEK-293T): 9 µM
- Activity (RS4-11 [11]): Dose-Dependent Effect
- Activity (RS4-11 [12]): >60%
- viability at 20 µM (RS4-11 [13]): 1.39%
- Activity (RS4-11 [14]): 0.24%
- Activity (RS4-11 [15]): Dose-Dependent Effect
- Activity [16]: Non-Toxic
- inhibition (MCF7): inactive

SMILES: O=C(c1ccccc1O)c1[nH]c(Cl)c(Cl)c1-n1c(C(=O)c2ccccc2O)cc(Cl)c1Cl
- IC50 (Bcl-2-like protein 1 [19]): > 80 µM
